In patent US12186423B2, “Brightening booster technology and brightening ampule” (MARY KAY INC., priority 2020, dated 2025):
“And” between values parts separate entries of the source, which are not always exact repeats. Equal values may be shown once.

Columns and labels:
B16-F1 melanocytes [1] = experiment: B16 pigmentation assay (melanin production, absorbance at 405 nm); assay type: cell-based, mouse; conditions: for OD 405 (single readings of triplicate): active ingredients diluted to 1% in DMEM, whole plate reading; for OD 405 (single readings of triplicate) / OD 405 AVG: kojic acid 1 mM, 5-6 days; for OD 405 AVG: average absorbance at 405 nm of triplicate, actives diluted to 1%; for % INHIBITION: vs untreated cells; for % INHIBITION / % Inhibition (change in pigmentation): negative value = less pigmentation; for Melanogenesis (OD 405, single readings of triplicate): alone and combined, kojic acid positive control; for Melanogenesis AVG (OD 405): average of triplicate; for % Inhibition (change in pigmentation): viability-corrected, vs untreated
Experimental: Melanogenesis is the process by which melanocytes produce melanin, a naturally produced pigment that imparts color to skin, hair, and eyes. Inhibiting melanogenesis is beneficial to prevent skin darkening and lighten dark spots associated with aging. […] The endpoint of these assays are a spectrophotometric measurement of melanin production and cellular viability. B16-F1 melanocytes were cultivated to subconfluence at 37° C. in 10% CO2 in T150 tissue culture flasks in standard DMEM growth medium supplemented with 10% fetal bovine serum (Mediatech) and 1% penicillin/streptomycin. Cells in one confluent T150 tissue culture flask were trypsinized and resuspended in DMEM, and 1% of the resuspended cells were seeded in 200 μl total volume DMEM in each well of a 96-well tissue culture plate. For phenol red-free media, 200 mM L-glutamine (20 ml/L) (Mediatech) was also added to the DMEM growth medium. […] Once cells reached about 20% confluence, cells were treated with any one of the active ingredients, combination of ingredients, or compositions having said combinations disclosed in the specification by replacing the DMEM growth media with 200 μl DMEM growth media containing diluted active ingredients. Cells were also treated with 1 mM kojic acid as a positive control. Cells were then incubated for 5-6 days at 37° C. in 10% CO2. Following incubation, melanin secretion was measured by absorbance of the whole plate at 405 nm (OD 405) (whole plate reading). […] Percent viability of the cell samples was calculated using the following formula: % Viability=(Mean OD 490 of Sample/Mean OD 490 of Control). […] Percent change in pigmentation of the cell samples was calculated using the following formula: % Change=% pigmentation of Sample−% pigmentation of Control.

B16-F1 melanocytes [2] = assay type: cell-based; conditions: mouse
Experimental: The endpoint of these assays are a spectrophotometric measurement of melanin production and cellular viability. B16-F1 melanocytes were cultivated to subconfluence at 37° C. in 10% CO2 in T150 tissue culture flasks in standard DMEM growth medium supplemented with 10% fetal bovine serum (Mediatech) and 1% penicillin/streptomycin. Cells in one confluent T150 tissue culture flask were trypsinized and resuspended in DMEM, and 1% of the resuspended cells were seeded in 200 μl total volume DMEM in each well of a 96-well tissue culture plate. For phenol red-free media, 200 mM L-glutamine (20 ml/L) (Mediatech) was also added to the DMEM growth medium. Active ingredients were diluted to 1% in DMEM growth medium. Once cells reached about 20% confluence, cells were treated with any one of the active ingredients, combination of ingredients, or compositions having said combinations disclosed in the specification by replacing the DMEM growth media with 200 μl DMEM growth media containing diluted active ingredients. Cells were also treated with 1 mM kojic acid as a positive control. Cells were then incubated for 5-6 days at 37° C. in 10% CO2. Following incubation, melanin secretion was measured by absorbance of the whole plate at 405 nm (OD 405) (whole plate reading). […] Percent viability of the cell samples was calculated using the following formula: % Viability=(Mean OD 490 of Sample/Mean OD 490 of Control). […] Percent change in pigmentation of the cell samples was calculated using the following formula: % Change=% pigmentation of Sample−% pigmentation of Control.

[3] = second experiment, 2% niacinamide, 2% navy bean, 0.2% ferulic acid

Row | SMILES | OD 405 (single readings of triplicate) (B16-F1 melanocytes [1]; first experiment) | OD 405 AVG (B16-F1 melanocytes [1]; first experiment) | % INHIBITION (B16-F1 melanocytes [1]; first experiment) | Melanogenesis (OD 405, single readings of triplicate) (B16-F1 melanocytes [1]; [3]) | Melanogenesis AVG (OD 405) (B16-F1 melanocytes [1]; [3]) | % Inhibition (change in pigmentation) (B16-F1 melanocytes [1]; second experiment) | % Viability (B16-F1 melanocytes [2]) | Viability AVG (OD 490) (B16-F1 melanocytes [2]) | effect on pigmentation / melanin secretion (in words) (B16-F1 melanocytes [1]; first experiment) | inhibited pigmentation / melanin secretion (B16-F1 melanocytes [1]; second experiment, 2% navy bean, 0.2% ferulic acid, 2% niacinamide) | OD 405 (single readings of triplicate) (B16-F1 melanocytes [1]; first experiment, listed as CONTROL)
1 | NC(=O)c1cccnc1 [Niacinamide (B3), Niacinamide] | 0.775 and 0.766 and 0.78 | 0.774 | 3.941% | 0.775 and 0.766 and 0.78 | 0.774 | 3.58% | 100% | 1.725 | – | – | –
2 | COc1cc(/C=C/C(=O)O)ccc1O [Ferulic Acid (FA), Ferulic acid] | 0.367 and 0.384 and 0.391 | 0.381 | −48.858% | 0.367 and 0.384 and 0.391 | 0.381 | −48.03% | 98.4% | 1.692 | inhibited pigmentation to some degree | 48.03% | –
3 | O=c1cc(CO)occ1O [Kojic Acid, kojic acid] | – | 0.328 | −55.979% | 0.31 and 0.333 and 0.34 | 0.328 | −55.14% | 98.1% | 1.687 | – | – | 0.31 and 0.333 and 0.34
